Assay results published in article PMC7156724, “Potent BRD4 inhibitor suppresses cancer cell-macrophage interaction” (Nature Communications, 2020).
“And” between values parts separate entries of the source, which are not always exact repeats. Identical values can stand only once.

Experiments:
MDA-MB231 cells = assay: MTT cell growth assay, MDA-MB231; format: cell-based, human; conditions: 5 days
Experimental: Fig. 2 NHWD-870 inhibited BRD4 phosphorylation and c-MYC expression, and suppressed cell growth. a Representative western blot analysis of p-BRD4 (s484/488), BRD4, c-MYC, and GAPDH after treatment of MDA-MB231, SUM159, A2780 ES-2, and H526 cells with JQ-1 or NHWD-870 at the indicated concentrations for 24 h. GAPDH served as the loading control. Selected from three independent experiments. b MTT assays of H526, A2780, ES-2, and MDA-MB231 cells treated with JQ-1 or NHWD-870 at the indicated concentrations for 5 days. Data are presented as mean ± SEM from three independent experiments. c, d Clonogenic assays of H526, A2780, ES-2 and MDA-MB231 cells treated with 250 nM JQ-1 or NHWD-870 for 5 days. Shown are representative images (c) and quantification of colonies (d). […] Shown are representative images (e) and quantification of relative colony sizes (f). Scale bar, 50 μm. Data are presented as mean ± SEM from five independent experiments. p values were calculated using two-tailed, unpaired t tests in this figure. **p < 0.01; ***p < 0.001. Source data are provided as a Source Data file.
37℃, 5% CO2. […]

MDA-MB231 TNBC = MDA-MB231 TNBC xenograft growth; format: in vivo, mouse; set-up: MDA-MB231 tumor size (Sup Fig.9d; quantity and unit not given): unit not given here
Experimental: 4–6 weeks old female BALB/c nude mice were used for most experiments, with the exception of 6–8 weeks old female C57BL/6 mice were used for B16F10 experiments, and 6–8 weeks old male BALB/c nude mice and SD rats were used for pharmacokinetic experiments. All animals were purchased from Shanghai SIPPR-Bk Lab Animal Co., Ltd. All animals were housed under a regimen of 12 h light/12 h dark cycles and specific pathogen-free conditions. 5×10^6 NCI-H526, ES-2, MDA-MB231, A2780, A375, B16F10, and TMD-8 cells (0.1 ml) were injected subcutaneously into female nude mice. The melanoma patient-derived xenograft model was derived from a human melanoma sample (BRAF, NARS and NF1 wild type, and p53 mutant) removed from a patient in Xiangya Hospital. Surgically removed tumor fragments were implanted subcutaneously into female NSG mice. When the tumors grew to ~1000 mm^3, they were harvested and cryopreserved or immediately re-implanted for expansion or experiments. Mouse body weight and tumor sizes were measured every 3 days. Once the tumors grew to 150–200 mm^3, mice were treated with the compounds as described in the Figures. 1 × 10^6 A2780 cells (1 ml) were injected into the abdominal cavity of nude mice. Ascitic volume and tumor weight were measured by an electronic balance. All the procedures were evaluated and approved by the Institutional Animal Care and Use Committee of Central South University and Yale University.
Supplementary Figure 9. […]
PO, oral administration; QD, once daily; BID, twice daily; D, day. (c,d) Tumor growth curves for ES2 ovarian tumor (c), MDA-MB231 breast tumor (d) bearing mice treated with the indicated compounds for 21 days. Compounds were orally administrated once daily. Data are presented as mean ± SEM from 6 different mice. p values were calculated using two-tailed, unpaired t tests.
**, p<0.01; ***, p<0.001. Source data are provided as a Source Data file. […]

TAMs = assay: Transwell co-culture of pretreated A2780 cells and TAMs with CSF1 or anti-CSF1R antibodies; format: cell-based, mouse; conditions: co-culture with pretreated A2780 cells, MCSF-1 10ng/ml where added
Experimental: Fig. 6 CSF1/CSF1R signaling is critical for the tumor inhibitory effects of NHWD-870 and CSF1 induced ovarian cancer growth depends on macrophages. a Number of TAMs after treatment with the indicated concentration of CSF1 for 48 h. Data are presented as mean ± SEM from three independent experiments. b–d Schematics of the experiments (b). A2780 cells (pre-treated with DMSO or 100 nM NHWD-870 for 48 h) were seeded into the top chamber (transwell size: 0.4 μm), and TAMs (Mac, 40,000 cells per 24-well) in medium with PBS or 10 ng/ml CSF1 (c), or 50 ng/ml IgG or anti-CSF1R antibodies (d), were seeded into the bottom chamber. Shown are quantification of TAMs (c, d). Data are presented as mean ± SEM from three independent experiments. e Representative western blot analysis of A2780 cells stably transfected with CSF1 or empty vector (EV). Selected from three independent experiments. f Schematics of the animal experiments using an orthotopic mouse OC model, established by intraperitoneally injecting 1 × 10^6 (g–j) or 2 × 10^6 (k–m) human A2780 cells overexpressing CSF1 or control into female recipient nude mice. Mice were then treated with/without liposomal clodronate (LC) for 45 days (g–j) or treated with/without NHWD-870 (PO, QD, 3 mg/kg) for 37 days (k–m). g Increased mouse body weight was measured at the indicated time points (day 0-45 after LC treatment). h–j Net tumor weight (h), ascitic fluid volumes (i) tumor implantations in peritoneum, omentum and pevic cavity (j) were measured at day 45 from LC treatment. k–m Net tumor weight (k), ascitic fluid volumes (l) tumor implantations in peritoneum, omentum and pevic cavity (m) were measured at day 37 after NHWD-870 treatment. For g–m, data are presented as mean ± SEM from five different mice. p values were calculated using two-tailed, unpaired t tests in this figure. n.s, not significant; *p < 0.05; **p < 0.01; and ***p < 0.001. Source data are provided as a Source Data file.
CD45^+CD11b^+F4/80^+ TAMs were isolated from peritoneal metastasis of A2780 tumor-bearing mice and cultured in RPMI-1640 supplemented with 10% FBS, 1% penicillin/streptomycin, and 0–50 ng/ml CSF1 (R&D Systems) as indicated according to standard protocols. In the cancer cell-macrophage co-culture experiments, CSF1 was not added. In the transwell (Corning, pore size, 0.4 μm) co-culture experiments, tumor cells were placed into the upper chamber, and TAMs were seeded into the lower chamber.

Cc1nnn(C)c1-c1cnc2c3c4cnn(C)c4ccc3n([C@H](c3ccccc3)C3CCOCC3)c2c1 [NHWD-870]
MTT assay, relative cell number (MDA-MB231 cells; MDA-MB231, 0.1 nM): 0.965 and 0.95 and 0.937
MTT assay, relative cell number (MDA-MB231 cells; MDA-MB231, 1 nM): 0.701 and 0.703 and 0.725
MTT assay, relative cell number (MDA-MB231 cells; MDA-MB231, 10 nM): 0.368 and 0.306 and 0.338
MTT assay, relative cell number (MDA-MB231 cells; MDA-MB231, 100 nM): 0.083 and 0.065 and 0.074
MTT assay, relative cell number (MDA-MB231 cells; MDA-MB231, 500 nM): 0
MTT assay, relative cell number (MDA-MB231 cells; MDA-MB231, 1000 nM): 0
MTT assay, relative cell number (MDA-MB231 cells; MDA-MB231, 5000 nM): 0
MTT assay, relative cell number (MDA-MB231 cells; MDA-MB231, 10000 nM): 0
MDA-MB231 tumor size (Sup Fig.9d; quantity and unit not given) (MDA-MB231 TNBC; 1mg/kg p.o. QD x 21D, day 0, individual animals): 279.42 and 121.19 and 223.85 and 207.81 and 142.25 and 116.01
MDA-MB231 tumor size (Sup Fig.9d; quantity and unit not given) (MDA-MB231 TNBC; 1mg/kg p.o. QD x 21D, day 3, individual animals): 342.36 and 216.69 and 301.84 and 236.23 and 182.39 and 129.14
MDA-MB231 tumor size (Sup Fig.9d; quantity and unit not given) (MDA-MB231 TNBC; 1mg/kg p.o. QD x 21D, day 7, individual animals): 454.4 and 329.94 and 520.71 and 309.24 and 176.3 and 192.56
MDA-MB231 tumor size (Sup Fig.9d; quantity and unit not given) (MDA-MB231 TNBC; 1mg/kg p.o. QD x 21D, day 10, individual animals): 681 and 486.76 and 545.06 and 482.5 and 217.9 and 268.16
MDA-MB231 tumor size (Sup Fig.9d; quantity and unit not given) (MDA-MB231 TNBC; 1mg/kg p.o. QD x 21D, day 14, individual animals): 889.946 and 639.335 and 784.126 and 538.093 and 253.479 and 345.127
MDA-MB231 tumor size (Sup Fig.9d; quantity and unit not given) (MDA-MB231 TNBC; 1mg/kg p.o. QD x 21D, day 17, individual animals): 973.96 and 796.38 and 1110.48 and 713.45 and 300.77 and 432.71
MDA-MB231 tumor size (Sup Fig.9d; quantity and unit not given) (MDA-MB231 TNBC; 1mg/kg p.o. QD x 21D, day 21, individual animals): 1038.8 and 904.78 and 1426.58 and 1004.43 and 413.96 and 626.93
MDA-MB231 tumor size (Sup Fig.9d; quantity and unit not given) (MDA-MB231 TNBC; 3mg/kg p.o. QD x 21D, day 0, individual animals): 118.16 and 163.39 and 132.22 and 223.66 and 238.14 and 193.21
MDA-MB231 tumor size (Sup Fig.9d; quantity and unit not given) (MDA-MB231 TNBC; 3mg/kg p.o. QD x 21D, day 3, individual animals): 111.38 and 180.22 and 170.04 and 238.46 and 333.75 and 199.82
MDA-MB231 tumor size (Sup Fig.9d; quantity and unit not given) (MDA-MB231 TNBC; 3mg/kg p.o. QD x 21D, day 7, individual animals): 184.36 and 185.35 and 194.47 and 370.49 and 294.2 and 222.64
MDA-MB231 tumor size (Sup Fig.9d; quantity and unit not given) (MDA-MB231 TNBC; 3mg/kg p.o. QD x 21D, day 10, individual animals): 223.77 and 229.36 and 217.46 and 450.48 and 331.57 and 251.49
MDA-MB231 tumor size (Sup Fig.9d; quantity and unit not given) (MDA-MB231 TNBC; 3mg/kg p.o. QD x 21D, day 14, individual animals): 325.631 and 331.431 and 303.664 and 453.402 and 392.114 and 282.288
MDA-MB231 tumor size (Sup Fig.9d; quantity and unit not given) (MDA-MB231 TNBC; 3mg/kg p.o. QD x 21D, day 17, individual animals): 488.17 and 465.37 and 409.38 and 652.35 and 540.67 and 429.56
MDA-MB231 tumor size (Sup Fig.9d; quantity and unit not given) (MDA-MB231 TNBC; 3mg/kg p.o. QD x 21D, day 21, individual animals): 586.22 and 557.41 and 558.02 and 759.6 and 643.46 and 481.28
effect on tumor growth (MDA-MB231 TNBC; MDA-MB231 TNBC, oral once daily 21 days): strong tumor-suppressive effects
Number of TAMs (Fig.6c) (TAMs; time 0): 5
Number of TAMs (Fig.6c) (TAMs; time 24): 5.5 and 5.2 and 6.2
Number of TAMs (Fig.6c) (TAMs; time 48): 6.8 and 6.3 and 7.4
Number of TAMs (Fig.6c) (TAMs; time 72): 8.9 and 9.5 and 8.5
